Laboratory results from patent US20210269734A1, “POLYISOBUTYLENE-SUBSTITUTED PHENOL, DERIVATIVES THEREOF, AND LUBRICATING COMPOSITIONS CONTAINING THE POLYISOBUTYLENE-SUBSTITUTED PHENOL AND ITS DERIVATIVES” (The Lubrizol Corporation, priority 2016, published 2021).
Like-named read-outs stand apart in the source and are kept apart here.

Experiments:
[1] = tested on: Daphnia sp.; conditions: OECD Test No. 202 acute immobilisation
Protocol: The polyisobutylene substituted phenol described in Example 1 was tested for Acute Ecotox Value for Invertebrate using the OECD Guidelines for the Testing of Chemicals, Test No. 202 Daphnia sp. Acute Immobilisation Test (2004). Samples of alkyl-phenols having C4 and C8 alkyl groups were compared to the Sample of Example 1. A published test value for PDDP using the same test method is also included as a comparison.

[2] = tested on: Daphnia sp.; conditions: published value, same test method; Daphnia magna, Sewell & McKenzie (2005a); cited from earlier work

| Substance | Acute Ecotox Value for Invertebrate daphnid (EC50) [1] [µg/mL] | Acute Ecotox Value for Invertebrate daphnid (EC50) [2] [µg/mL] |
| --- | --- | --- |
| 350 Mn polyisobutylene-alkylated phenol [Example 1] | >100 |  |
| PDDP [Comparative Ex. 3] |  | 0.037 |
